According to US10633420B2, “Antimicrobial peptides with wound healing activity” (priority 2016, dated 2020):
Values after ≈ are worked out from the molar mass of the structure shown. Read-outs that look alike come from different tables or passages of the source. No end group written: not given here.

Key:
HEKa cells = experiment: In vitro scratch wound closure assay; assay type: cell-based, human; details: 10 μg/ml DRGN-1; 20 μM mitomycin C or 0.2 μM AG1478 pretreatment
Procedure: In vitro scratch wound closure assays: In vitro wound closure was assayed in confluent cell monolayers of HEKa (Invitrogen) as described elsewhere (Kim et al., Amino Acids 46:2333-2343, 2014). Cells were seeded in 6-well plates (Corning, N.Y., USA) and grown until they reached confluence (48 hours) in EpiLife medium supplemented with HKGS. Cells were starved for 18 hours in EpiLife without HKGS and then scratched once vertically with a 200-μl pipette tip to create an artificial wound. For inhibitor studies, mitomycin C (20 μM final) and AG1478 (0.2 μM final) were added 90 minutes and 10 minutes prior to scratch generation. After being washed twice with PBS to remove cellular debris, cells were treated with DRGN-1, VK25 or LL-37. PBS was used as a negative control. Cells were photographed before peptide treatment and 7 hours and 24 hours after peptide treatment using an EVOS® Cell Imaging Systems (Invitrogen). The same image fields were captured and the wound areas were estimated using ImageJ software (Schneider et al., Nat Methods 9:671-675, 2012).

EGFR = experiment: Western blotting, EGFR phosphorylation; assay type: cell-based, human; details: 0.2 μM AG1478, 10 minutes preincubation
Procedure: FIGS. 8A-8F indicate transactivation of the EGFR-STAT pathway by DRGN-1. Subconfluent keratinocytes were starved for 2 hours in HGKS-free medium and then stimulated with 10 μg/ml DRGN-1. For EGFR inhibition, cells were preincubated with 0.2 μM AG1478 for 10 minutes and subsequently treated with 10 μg/ml DRGN-1. The cells were harvested into lysis buffer at the indicated times. The phosphorylation of EGFR (p-EGFR) and STAT3 (p-STAT3) was analyzed by Western blotting (FIGS. 8A, 8B, 8D, and 8E). EGFR indicates total EGFR protein. FIGS. 8C and 8F are graphs plotting densitometric analyses of the expression of phosphoprotein relative to unphosphorylated proteins (pEGFR/EGFR, FIG. 8C; pSTAT3/STAT3, FIG. 8F).
Western blotting: Semifluent HEKa cells were serum-starved for 3 hours and then stimulated with 10 μg/ml DRGN-1 or HKGS for 5-30 minutes at 37° C. AG1478 (0.2 μM final) was added 10 minutes prior to DRGN-1 or HKGS treatment. Cells were lysed with 2×Laemmli sample buffer (Bio-Rad; Hercules, Calif.) containing 5 mM sodium fluoride and 2 mM sodium vanadate. Cell lysates were separated on a 4-12% SDS-PAGE gel and transferred to polyvinylidene difluoride membrane using an iBlot system (Invitrogen). The membranes were probed with antibodies specific to phospho-EGFR and EGFR (Cell Signaling). […]

S. aureus ATCC25923 = details: ATCC25923, 3 h, pH 7.4
[1] = test system: P. aeruginosa PAO1 (pTDK-GFP)
P. aeruginosa ATCC 9027 = details: ATCC 9027, 3 h, pH 7.4
[2] = test system: adult human epidermal keratinocytes (HEKa) cells; experiment: MTT assay; assay type: cell-based; details: for Toxic effects on metabolically active HEKa cells (MTT): 12.5˜100 μg/ml
Procedure: MTT assay: The toxic effect of the peptides on adult human epidermal keratinocytes (HEKa) cells was evaluated using the MTT (3-(4,5-dimethylthiazolyl-2)-2,5-diphenyltetrazolium bromide) colorimetric method (Di Grazia et al., Antimicrob Agents Chemother 58:2520-2527, 2014). The color intensity of the MTT is directly proportional to the number of metabolically active cells. Keratinocytes were plated in triplicate wells of a 96-well plate, at 4×10^4 cells/well in EpiLife medium supplemented with HKGS. After overnight incubation at 37° C. in a 5% CO2 atmosphere, the plate was incubated with the peptides at different concentrations for 2 hours, and 0.5 mg/ml of MTT was added. After 4 hours of incubation, formazan crystals were dissolved by adding 100 μl of acidified isopropanol, and the absorbance of each well was measured at 570 nm using a microplate reader (PowerWave X; BioTek, Winooski, Vt.).

E. coli O157:H7 = details: 3 hours, 10 mM sodium phosphate buffer pH 7.4
P. aeruginosa PAO1 = details: PAO1, 3 h, pH 7.4
[3] = test system: Gram-negative P. aeruginosa and E. coli and the Gram-positive S. aureus
F. novicida U112 = details: 3 hours, 10 mM sodium phosphate buffer pH 7.4
[4] = test system: S. aureus SH1000 (pAH9-RFP); details: 3 hours, 10 mM sodium phosphate buffer pH 7.4
[5] = test system: internalized P. aeruginosa ATCC 9027 in HEKa keratinocytes; experiment: P. aeruginosa-infected HEKa keratinocytes; assay type: cell-based, Pseudomonas aeruginosa; details: 30 μg/ml, 2 hours
Procedure: Cell infection: Adult human epidermal keratinocytes HEKa (Invitrogen, Carlsbad, Calif.) cells were seeded in 24-well plates (Corning) and grown until they reached confluence (48 h) in EpiLife medium (Thermo Scientific) supplemented with human keratinocyte growth supplements (HKGS) containing 0.2% v/v bovine pituitary extract, 5 μg/ml bovine insulin, 0.18 μg/ml hydrocortisone, 5 μg/ml bovine transferrin, and 0.2 ng/ml human epidermal growth factor (EGF) (Invitrogen). The bacterial strain P. aeruginosa ATCC 9027 was grown in brain heart infusion (BHI) media at 37° C. with mild shaking and then harvested by centrifugation. Bacterial suspension (MOI 10) in EpiLife medium was co-incubated with keratinocytes for 2 hours at 37° C. and 5% CO2. The medium was aspirated and the cells were washed three times with PBS to remove non-adherent bacteria. In order to kill extracellular bacteria, cells were incubated for 1 hour in EpiLife without HKGS supplemented with 100 μg/ml of gentamicin. The medium was then aspirated and the infected cells were washed three times, as described above. Three hundred microliters of peptide solution (30 μg/ml) in EpiLife without HKGS was added to each well and the plate was incubated for 2 hours at 37° C. and 5% CO2. […] The CFU were counted after 24 hours at 37° C.

sheep erythrocytes = experiment: Hemolytic activity; assay type: cell-based; details: high concentration
Procedure: FIG. 4 is a graph plotting hemolytic activity of CAMPs. A fresh sheep erythrocyte suspension was incubated with the indicated peptides. Hemoglobin release into the supernatant was measured by absorbance at 567 nm to indicate membrane damage of erythrocytes.

[6] = 3 hours, 10 mM sodium phosphate buffer pH 7.4

COc1cc2ncnc(Nc3cccc(Cl)c3)c2cc1OC [AG1478]
Effect on keratinocyte migration induced by DRGN-1 (HEKa cells): prevented cell migration | Effect on DRGN-1-induced EGFR phosphorylation (EGFR): not observed in AG1478-treated cells

SPKKTKPVKPKKVA [VK25, SPKKTKPVKPKKVA]
EC50 (S. aureus ATCC25923): >100 µg/mL | EC50 [1, 6]: >100 µg/mL | EC50 (P. aeruginosa ATCC 9027): >100 µg/mL | Toxic effects on metabolically active HEKa cells (MTT) [2]: devoid of toxic effects | EC50 (E. coli O157:H7): >100 µg/mL | EC50 (P. aeruginosa PAO1): >100 µg/mL | EC50, range over strains [3]: > 100 µg/mL | EC50 (F. novicida U112): >100 µg/mL | EC50 [4]: >100 µg/mL

PSKKTKPVKPKKVA [DRGN-1, PSKKTKPVKPKKVA]
EC50 (S. aureus ATCC25923): 4.04 µg/mL | EC50 [1, 6]: 7.10 µg/mL | Killing of internalized bacteria [5]: 36% | EC50 (P. aeruginosa ATCC 9027): 4.39 µg/mL | Toxic effects on metabolically active HEKa cells (MTT) [2]: devoid of toxic effects | EC50 (E. coli O157:H7): 3.48 µg/mL | Toxicity against erythrocytes (hemolysis) (sheep erythrocytes): did not show any toxicity | EC50 (P. aeruginosa PAO1): 6.85 µg/mL | EC50 [3]: 500 to 4620 nM | EC50, range over strains [3]: 0.77 to 7.1 µg/mL | EC50 (F. novicida U112): >100 µg/mL | EC50 [4]: 0.77 µg/mL

CO[C@@]12[C@H](COC(N)=O)C3=C(C(=O)C(C)=C(N)C3=O)N1C[C@@H]1N[C@@H]12 [mitomycin C]
Effect on keratinocyte migration induced by DRGN-1 (HEKa cells): strongly inhibited

CC[C@H](C)[C@H](NC(=O)[C@H](CCCCN)NC(=O)[C@H](CCC(=O)O)NC(=O)[C@H](CCCCN)NC(=O)[C@H](CO)NC(=O)[C@H](CCCCN)NC(=O)[C@H](CCCNC(=N)N)NC(=O)[C@H](Cc1ccccc1)NC(=O)[C@H](Cc1ccccc1)NC(=O)[C@H](CC(=O)O)NC(=O)CNC(=O)[C@H](CC(C)C)NC(=O)[C@@H](N)CC(C)C)C(=O)NCC(=O)N[C@@H](CCCCN)C(=O)N[C@@H](CCC(=O)O)C(=O)N[C@@H](Cc1ccccc1)C(=O)N[C@@H](CCCCN)C(=O)N[C@@H](CCCNC(=N)N)C(=O)N[C@H](C(=O)N[C@H](C(=O)N[C@@H](CCC(N)=O)C(=O)N[C@@H](CCCNC(=N)N)C(=O)N[C@H](C(=O)N[C@@H](CCCCN)C(=O)N[C@@H](CC(=O)O)C(=O)N[C@@H](Cc1ccccc1)C(=O)N[C@@H](CC(C)C)C(=O)N[C@@H](CCCNC(=N)N)C(=O)N[C@@H](CC(N)=O)C(=O)N[C@@H](CC(C)C)C(=O)N[C@H](C(=O)N1CCC[C@H]1C(=O)N[C@@H](CCCNC(=N)N)C(=O)N[C@H](C(=O)N[C@@H](CCC(=O)O)C(=O)N[C@@H](CO)C(=O)O)[C@@H](C)O)C(C)C)[C@@H](C)CC)C(C)C)[C@@H](C)CC [LL-37, reference compound]
EC50 ([1]; PAO1, 3 h, pH 7.4): 2.69 µg/mL (≈ 0.599 µM) | EC50 (P. aeruginosa ATCC 9027): 1.08 µg/mL (≈ 0.24 µM) | HEKa cell viability (MTT) ([2]; 50˜100 μg/ml): significant decrease | EC50 [3]: 50 to 600 nM | EC50, range over strains [3]: 0.24 to 2.7 µg/mL
